Assay results: patent US8063053B2, “1-(arylsulfonyl)-4-(piperazin-1-yl)-1H-benzimidazoles as 5-hydroxytryptamine-6 ligands” (Wyeth LLC, priority 2008, dated 2011)

Target: T1, serotonin 5-HT6 receptor subtype (Homo sapiens, UniProt P50406)
T1 construct: host or cells: CHO-Dukx-A2 cells, clone 50-7
Assay: 5-HT6 binding affinity ([3H]-LSD SPA binding)
Details: not given

T1 sequence (P50406 whole entry): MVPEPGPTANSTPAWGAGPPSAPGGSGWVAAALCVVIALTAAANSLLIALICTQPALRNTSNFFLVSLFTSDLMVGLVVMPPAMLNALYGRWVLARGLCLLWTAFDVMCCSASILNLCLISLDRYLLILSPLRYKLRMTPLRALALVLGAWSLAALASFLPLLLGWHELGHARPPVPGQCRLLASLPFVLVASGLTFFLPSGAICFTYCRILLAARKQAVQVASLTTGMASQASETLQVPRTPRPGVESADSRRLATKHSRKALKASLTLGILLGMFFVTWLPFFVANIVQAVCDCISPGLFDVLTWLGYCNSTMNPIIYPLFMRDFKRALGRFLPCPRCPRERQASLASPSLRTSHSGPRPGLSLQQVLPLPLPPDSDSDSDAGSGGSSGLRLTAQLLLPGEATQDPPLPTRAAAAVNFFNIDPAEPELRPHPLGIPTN

SMILES	Ki [nM]
O=S(=O)(c1ccccc1)n1cnc2c(N3CCNCC3)cccc21 [Example 3, 1-(phenylsulfonyl)-4-(piperazin-1-yl)-1H-benzo[d]imidazole]	1.36

Same assay, conditions: CHO-Dukx-A2 cells expressing 5-HT6 receptor (clone 50-7); 3 nM [3H]-LSD; PVT WGA SPA beads; Ki by Cheng-Prusoff; read-out: 5-HT6 binding Ki

SMILES	Ki [nM]
Cc1nc2c(N3CCNCC3)cccc2n1S(=O)(=O)c1ccccc1 [Example 5, 2-methyl-1-(phenylsulfonyl)-4-piperazin-1-yl-1H-benzimidazole]	0.53

Same assay, conditions: read-out: 5-HT6 binding Ki

SMILES	Ki [nM]
Cc1nc2c(N3CCNC(C)C3)cccc2n1S(=O)(=O)c1ccccc1 (stereo in doubt) [Example 114, 2-methyl-4-[(3R)-3-methylpiperazin-1-yl]-1-(phenylsulfonyl)-1H-benzimidazole]	3.17
Cc1nc2c(N3CCNC(C)C3)cccc2n1S(=O)(=O)c1cccc2ccccc12 (stereo in doubt) [Example 115, 2-methyl-4-[(3R)-3-methylpiperazin-1-yl]-1-(1-naphthylsulfonyl)-1H-benzimidazole]	1.12
Cc1nc2c(N3CCNC(C)C3)cccc2n1S(=O)(=O)c1ccccc1 (stereo in doubt) [Example 116, 2-methyl-4-[(3S)-3-methylpiperazin-1-yl]-1-(phenylsulfonyl)-1H-benzimidazole]	0.951
Cc1nc2c(N3CCNC(C)C3)cccc2n1S(=O)(=O)c1cccc2ccccc12 (stereo in doubt) [Example 117, 2-methyl-4-[(3S)-3-methylpiperazin-1-yl]-1-(1-naphthylsulfonyl)-1H-benzimidazole]	0.305
CN1CCN(c2cccc3c2ncn3S(=O)(=O)c2cccc3ccccc23)CC1 [Example 1, 4-(4-methylpiperazin-1-yl)-1-(naphthalen-1-ylsulfonyl)-1H-benzo[d]imidazole]	0.064
O=S(=O)(c1cccc2ccccc12)n1cnc2c(N3CCNCC3)cccc21 [Example 2, 1-(naphthalen-1-ylsulfonyl)-4-(piperazin-1-yl)-1H-benzo[d]imidazole]	0.165
Cc1nc2c(N3CCNCC3)cccc2n1S(=O)(=O)c1cccc2ccccc12 [Example 4, 2-methyl-1-(1-naphthylsulfonyl)-4-piperazin-1-yl-1H-benzimidazole]	0.025
CCc1nc2c(N3CCNCC3)cccc2n1S(=O)(=O)c1ccccc1 [Example 6, 2-ethyl-1-(phenylsulfonyl)-4-piperazin-1-yl-1H-benzimidazole]	0.447
CCN1CCN(c2cccc3c2ncn3S(=O)(=O)c2ccccc2)CC1 [Example 7, 4-(4-ethylpiperazin-1-yl)-1-(phenylsulfonyl)-1H-benzimidazole]	0.394
CCCCc1nc2c(N3CCNCC3)cccc2n1S(=O)(=O)c1ccccc1 [Example 8, 2-butyl-1-(phenylsulfonyl)-4-piperazin-1-yl-1H-benzimidazole]	1.1
Cc1nc2c(N3CCN(C)CC3)cccc2n1S(=O)(=O)c1cccc2ccccc12 [Example 9, 2-methyl-4-(4-methylpiperazin-1-yl)-1-(1-naphthylsulfonyl)-1H-benzimidazole]	0.004
O=S(=O)(c1ccc(Cl)cc1)n1cnc2c(N3CCNCC3)cccc21 [Example 10, 1-[(4-chlorophenyl)sulfonyl]-4-piperazin-1-yl-1H-benzimidazole]	1.32
O=S(=O)(c1ccccc1Cl)n1cnc2c(N3CCNCC3)cccc21 [Example 11, 1-[(2-chlorophenyl)sulfonyl]-4-piperazin-1-yl-1H-benzimidazole]	0.269
CN1CCN(c2cccc3c2ncn3S(=O)(=O)c2ccccc2)CC1 [Example 12, 4-(4-methylpiperazin-1-yl)-1-(phenylsulfonyl)-1H-benzimidazole]	1.66
COc1ccc(S(=O)(=O)n2c(C)nc3c(N4CCNCC4)cccc32)cc1 [Example 13, 1-[(4-methoxyphenyl)sulfonyl]-2-methyl-4-piperazin-1-yl-1H-benzimidazole]	1.82
Cc1nc2c(N3CCNCC3)cccc2n1S(=O)(=O)c1cccc(OC(F)(F)F)c1 [Example 14, 2-methyl-4-piperazin-1-yl-1-{[3-(trifluoromethoxy)phenyl]sulfonyl}-1H-benzimidazole]	2.3
Cc1nc2c(N3CCNCC3)cccc2n1S(=O)(=O)c1ccccc1Cl [Example 15, 1-[(2-chlorophenyl)sulfonyl]-2-methyl-4-piperazin-1-yl-1H-benzimidazole]	0.99
Cc1nc2c(N3CCNCC3)cccc2n1S(=O)(=O)c1cccc(Cl)c1 [Example 16, 1-[(3-chlorophenyl)sulfonyl]-2-methyl-4-piperazin-1-yl-1H-benzimidazole]	0.99
Cc1nc2c(N3CCNCC3)cccc2n1S(=O)(=O)c1ccc(Cl)cc1 [Example 17, 1-[(4-chlorophenyl)sulfonyl]-2-methyl-4-piperazin-1-yl-1H-benzimidazole]	6
Cc1cccc(S(=O)(=O)n2c(C)nc3c(N4CCNCC4)cccc32)c1 [Example 18, 2-methyl-1-[(3-methylphenyl)sulfonyl]-4-piperazin-1-yl-1H-benzimidazole]	1.3
O=S(=O)(c1cccc(Cl)c1)n1cnc2c(N3CCNCC3)cccc21 [Example 19, 1-[(3-chlorophenyl)sulfonyl]-4-piperazin-1-yl-1H-benzimidazole]	4.3
O=S(=O)(c1ccc(F)cc1)n1cnc2c(N3CCNCC3)cccc21 [Example 20, 1-[(4-fluorophenyl)sulfonyl]-4-piperazin-1-yl-1H-benzimidazole]	25

SMILES	Ki [nM]
O=S(=O)(c1ccccc1F)n1cnc2c(N3CCNCC3)cccc21 [Example 21, 1-[(2-fluorophenyl)sulfonyl]-4-piperazin-1-yl-1H-benzimidazole]	3
O=S(=O)(c1cccc(F)c1)n1cnc2c(N3CCNCC3)cccc21 [Example 22, 1-[(3-fluorophenyl)sulfonyl]-4-piperazin-1-yl-1H-benzimidazole]	1.5
O=S(=O)(c1ccc2ccccc2c1)n1cnc2c(N3CCNCC3)cccc21 [Example 23, 1-(2-naphthylsulfonyl)-4-piperazin-1-yl-1H-benzimidazole]	10.6
COc1ccc(S(=O)(=O)n2cnc3c(N4CCNCC4)cccc32)cc1 [Example 24, 1-[(4-methoxyphenyl)sulfonyl]-4-piperazin-1-yl-1H-benzimidazole]	15.1
O=S(=O)(c1ccc(OC(F)(F)F)cc1)n1cnc2c(N3CCNCC3)cccc21 [Example 25, 4-piperazin-1-yl-1-{[4-(trifluoromethoxy)phenyl]sulfonyl}-1H-benzimidazole]	89
Cc1nc2c(N3CCNCC3)cccc2n1S(=O)(=O)c1cccc(F)c1 [Example 26, 1-[(3-fluorophenyl)sulfonyl]-2-methyl-4-piperazin-1-yl-1H-benzimidazole]	1.7
Cc1ccc(S(=O)(=O)n2cnc3c(N4CCNCC4)cccc32)cc1 [Example 27, 1-[(4-methylphenyl)sulfonyl]-4-piperazin-1-yl-1H-benzimidazole]	2.5
O=S(=O)(c1cccc(OC(F)(F)F)c1)n1cnc2c(N3CCNCC3)cccc21 [Example 28, 4-piperazin-1-yl-1-{[3-(trifluoromethoxy)phenyl]sulfonyl}-1H-benzimidazole]	1.95
O=S(=O)(c1ccc(F)c(Cl)c1)n1cnc2c(N3CCNCC3)cccc21 [Example 29, 1-[(3-chloro-4-fluorophenyl)sulfonyl]-4-piperazin-1-yl-1H-benzimidazole]	11.7
Cc1nc2c(N3CCNCC3)cccc2n1S(=O)(=O)c1ccc(OC(F)(F)F)cc1 [Example 30, 2-methyl-4-piperazin-1-yl-1-{[4-(trifluoromethoxy)phenyl]sulfonyl}-1H-benzimidazole]	15.8
Cc1ccc(S(=O)(=O)n2c(C)nc3c(N4CCNCC4)cccc32)cc1 [Example 31, 2-methyl-1-[(4-methylphenyl)sulfonyl]-4-piperazin-1-yl-1H-benzimidazole]	0.467
Cc1nc2c(N3CCNCC3)cccc2n1S(=O)(=O)c1ccccc1F [Example 32, 1-[(2-fluorophenyl)sulfonyl]-2-methyl-4-piperazin-1-yl-1H-benzimidazole]	2.5
O=S(=O)(c1ccccc1OC(F)(F)F)n1cnc2c(N3CCNCC3)cccc21 [Example 33, 4-piperazin-1-yl-1-{[2-(trifluoromethoxy)phenyl]sulfonyl}-1H-benzimidazole]	0.72
COc1cccc(S(=O)(=O)n2cnc3c(N4CCNCC4)cccc32)c1 [Example 34, 1-[(3-methoxyphenyl)sulfonyl]-4-piperazin-1-yl-1H-benzimidazole]	1.2
Cc1ccc(S(=O)(=O)n2cnc3c(N4CCNCC4)cccc32)c2ccccc12 [Example 35, 1-[(4-methyl-1-naphthyl)sulfonyl]-4-piperazin-1-yl-1H-benzimidazole]	1.1
Cc1cccc(S(=O)(=O)n2cnc3c(N4CCNCC4)cccc32)c1 [Example 36, 1-[(3-methylphenyl)sulfonyl]-4-piperazin-1-yl-1H-benzimidazole]	1.11
Cc1nc2c(N3CCNCC3)cccc2n1S(=O)(=O)c1ccc(F)cc1 [Example 38, 1-[(4-fluorophenyl)sulfonyl]-2-methyl-4-piperazin-1-yl-1H-benzimidazole]	10.5
Cc1ccccc1S(=O)(=O)n1cnc2c(N3CCNCC3)cccc21 [Example 39, 1-[(2-methylphenyl)sulfonyl]-4-piperazin-1-yl-1H-benzimidazole]	1.15
O=S(=O)(c1ccc(C(F)(F)F)cc1)n1cnc2c(N3CCNCC3)cccc21 [Example 40, 4-piperazin-1-yl-1-{[4-(trifluoromethyl)phenyl]sulfonyl}-1H-benzimidazole]	18.9
O=S(=O)(c1ccccc1C(F)(F)F)n1cnc2c(N3CCNCC3)cccc21 [Example 41, 4-piperazin-1-yl-1-{[2-(trifluoromethyl)phenyl]sulfonyl}-1H-benzimidazole]	1.06
O=S(=O)(c1cccc(C(F)(F)F)c1)n1cnc2c(N3CCNCC3)cccc21 [Example 42, 4-piperazin-1-yl-1-{[3-(trifluoromethyl)phenyl]sulfonyl}-1H-benzimidazole]	1.13
Cc1nc2c(N3CCNCC3)cccc2n1S(=O)(=O)c1ccc2ccccc2c1 [Example 43, 2-methyl-1-(2-naphthylsulfonyl)-4-piperazin-1-yl-1H-benzimidazole]	1.05
